Assay results published in patent US10829473B2, “Modulators of the cystic fibrosis transmembrane conductance regulator protein and methods of use” (AbbVie Overseas S.Á.R.L., priority 2017, dated 2020).
Read-outs that look alike come from different tables or passages of the source. Marks after values point to notes of the source that are not given here. One block for each compound: values may come before it.

Molecular target: T1, F508delCFTR (Homo sapiens, UniProt P13569, DEL508-508)
T1 construct: expressed in transfected cells; host or cells: CFBE41o- human lung derived epithelial cells (CFBE41o-F508delCFTR-HRP), doxycycline-inducible
Assay: Cell Surface Expression-Horse Radish Peroxidase (CSE-HRP) Assay;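 as to EC50 (with co-corrector): co-corrector chromenyl benzoic acid corrector at 2 or 3 µM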
Type: cell-based
Conditions: for Emax: read-out: Maximum % activity (without co-corrector)
Experimental: A cellular assay for measuring the F508delCFTR cell surface expression after correction with test compounds either without or with a co-corrector (2 μM of 3-[(2R,4R)-4-({[1-(2,2-difluoro-1,3-benzodioxol-5-yl)cyclopropyl]carbonyl}amino)-7-methoxy-3,4-dihydro-2H-chromen-2-yl]benzoic acid), was developed in human lung derived epithelial cell line (CFBE4lo−) (Veit G et al, (2012) Mol Biol Cell. 23(21): 4188-4202). The development was achieved by expressing the F508delCFTR mutation along with a horseradish peroxidase (HRP) in the fourth exofacial loop, and then measuring the HRP activity using luminescence readout from these cells, CFBE410-F508delCFTR-HRP, that were incubated overnight with the test corrector compounds, either without or with the co-corrector. For this primary assay, the CFBE410-F508delCFTR-HRP cells were plated in 384-well plates (Greiner Bio-one; Cat 781080) at 4,000 cells/well along with 0.5 μg/mL doxycycline to induce the F508delCFTR-HRP expression and further incubated at 37° C., 5% CO2 for 68-72 hours. The test compounds were then added either without or with a co-corrector at the required concentrations and further incubated for 18-24 hours at 33° C. The highest concentration tested was 20 μM or 30 μM (GI-1 to GIII-36) with an 8-point concentration response curve using a 3-fold dilution in both the test compound without or with the co-corrector. Three replicate plates were run to determine one EC50. All plates contained negative controls (dimethyl sulfoxide, DMSO) and positive control (2 μM or 3 μM (GI-1 to GIII-36) of 3-[(2R,4R)-4-({[1-(2,2-difluoro-1,3-benzodioxol-5-yl)cyclopropyl]carbonyl}amino)-7-methoxy-3,4-dihydro-2H-chromen-2-yl]benzoic acid) as well as on-plate concentration response of the positive control. Post incubation, the plates were washed 5× times with Dulbecco's phosphate buffered saline (DPBS), followed by the addition of the HRP substrate, luminol (50 4), and measuring the HRP activity using luminescence readout on EnVision® Multilabel Plate Reader (Perkin Elmer; product number 2104-0010). The raw counts from the experiment were analyzed using Accelrys® Assay Explorer v3.3.
Z′ greater than 0.5 was used as passing quality control criteria for the plates.
The Z′ is defined as: 1−[3*SDPositve Control+3*SDNegative Control/Absolute(MeanPositive Control−MeanNegative Control)] wherein “SD” is standard deviation.
The % activity measured at each of the 8 test concentrations of the test compound added either without or with a co-corrector (2 μM or 3 μM (GI-1 to GIII-36) of 3-[(2R,4R)-4-({[1-(2,2-difluoro-1,3-benzodioxol-5-yl)cyclopropyl]carbonyl}amino)-7-methoxy-3,4-dihydro-2H-chromen-2-yl]benzoic acid) was normalized to the on-plate positive control using the following formulae: % activity (Test compound without co-corrector)=[(test compound without co-corrector response DMSO response)/(positive control response DMSO response)]*100 % activity (Test compound with co-corrector)=[(test compound with co-corrector response DMSO response)/(positive control response DMSO response)]*100
The maximum % activity achieved for the test compound either without or with a co-corrector at any tested concentration is presented in Table 6 along with the respective EC50's calculated using the following general sigmoidal curve with variable Hill slope equation (described as Model 42 in the Accelrys® Assay Explorer v3.3 software): y=(a−d)/(1+(x/c)b)+d
General sigmoidal curve with concentration, response, top, bottom, EC50 and Hill slope. This model describes a sigmoidal curve with an adjustable baseline, a. The equation can be used to fit curves where response is either increasing or decreasing with respect to the independent variable, “x”.
“x” is a concentration of drug under test.
“a” is the maximum response, and “d” is the minimum response
“c” is the inflection point (EGO for the curve. That is, “y” is halfway between the lower and upper asymptotes when x=c.
“b” is the slope-factor or Hill coefficient. […]

[1] = test compound alone, without co-corrector, read-out: EC50 (without co-corrector)
[2] = with co-corrector, maximum at any tested concentration
[3] = with co-corrector, read-out: EC50 (with co-corrector)
[4] = without co-corrector, maximum at any tested concentration
[5] = test compound with co-corrector
[6] = test compound with co-corrector, maximum at any tested concentration
[7] = test compound without co-corrector
[8] = test compound without co-corrector, maximum at any tested concentration
[9] = test compound with co-corrector, read-out: EC50 (with co-corrector)
[10] = test compound without co-corrector, read-out: EC50 (without co-corrector)

T1 sequence (P13569 with tags, fused parts or gaps DEL508-508): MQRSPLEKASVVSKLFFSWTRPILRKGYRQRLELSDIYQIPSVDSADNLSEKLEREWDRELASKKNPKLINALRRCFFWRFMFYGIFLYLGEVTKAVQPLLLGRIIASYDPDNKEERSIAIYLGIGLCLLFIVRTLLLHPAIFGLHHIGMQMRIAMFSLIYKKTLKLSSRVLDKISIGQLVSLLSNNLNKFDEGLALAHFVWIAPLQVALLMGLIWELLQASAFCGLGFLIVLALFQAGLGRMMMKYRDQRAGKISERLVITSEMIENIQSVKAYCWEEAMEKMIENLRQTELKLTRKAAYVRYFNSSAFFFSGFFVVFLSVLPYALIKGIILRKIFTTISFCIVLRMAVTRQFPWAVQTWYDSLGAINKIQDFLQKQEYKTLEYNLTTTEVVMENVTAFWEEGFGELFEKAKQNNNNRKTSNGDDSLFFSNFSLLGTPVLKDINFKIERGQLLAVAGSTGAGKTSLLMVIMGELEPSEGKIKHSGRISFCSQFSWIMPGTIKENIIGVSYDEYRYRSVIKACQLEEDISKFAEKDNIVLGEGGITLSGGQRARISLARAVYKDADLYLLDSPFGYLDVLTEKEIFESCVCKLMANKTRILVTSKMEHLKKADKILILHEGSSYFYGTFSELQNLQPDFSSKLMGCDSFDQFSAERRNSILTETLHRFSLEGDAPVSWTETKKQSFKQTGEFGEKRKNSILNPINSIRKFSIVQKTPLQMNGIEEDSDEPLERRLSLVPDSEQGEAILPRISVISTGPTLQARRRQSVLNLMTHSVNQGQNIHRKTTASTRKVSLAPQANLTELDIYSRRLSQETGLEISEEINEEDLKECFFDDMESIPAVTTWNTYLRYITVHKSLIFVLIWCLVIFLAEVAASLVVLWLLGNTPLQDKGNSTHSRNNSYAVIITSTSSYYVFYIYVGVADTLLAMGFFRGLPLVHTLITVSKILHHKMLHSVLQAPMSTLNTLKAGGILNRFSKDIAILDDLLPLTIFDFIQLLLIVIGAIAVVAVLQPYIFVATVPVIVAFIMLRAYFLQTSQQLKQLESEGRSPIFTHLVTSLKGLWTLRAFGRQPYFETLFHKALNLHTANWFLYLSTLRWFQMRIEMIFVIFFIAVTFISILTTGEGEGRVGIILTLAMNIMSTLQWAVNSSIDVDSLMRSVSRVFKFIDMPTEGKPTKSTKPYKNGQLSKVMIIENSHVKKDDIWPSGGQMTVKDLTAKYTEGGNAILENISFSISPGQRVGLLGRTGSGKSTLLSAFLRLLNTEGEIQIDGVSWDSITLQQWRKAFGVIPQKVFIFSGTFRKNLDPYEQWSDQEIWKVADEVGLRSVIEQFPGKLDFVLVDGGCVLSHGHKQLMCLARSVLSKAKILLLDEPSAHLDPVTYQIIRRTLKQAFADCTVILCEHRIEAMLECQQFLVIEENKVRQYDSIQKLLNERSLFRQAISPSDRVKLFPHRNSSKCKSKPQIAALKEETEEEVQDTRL

Compound: 1-[5-(cyclopropylmethoxy)-2-methoxypyridin-4-yl]-N-(2-methylquinoline-5-sulfonyl)cyclopropane-1-carboxamide [Example GI-93]
Maximum % activity (with co-corrector) [6]: +++ (≥350)
EC50 [9]: < 3 µM
Maximum % activity (without co-corrector) [8]: +++ (≥150)
EC50 [10]: < 3 µM

Compound: CC(C)Oc1ncc(C2CCC2)cc1C1(C(=O)NS(=O)(=O)c2cccc3[nH]ccc23)CC1 [Example GI-24, 1-{5-cyclobutyl-2-[(propan-2-yl)oxy]pyridin-3-yl}-N-(1H-indole-4-sulfonyl)cyclopropane-1-carboxamide]
EC50 [1]: < 3 µM
Maximum % activity (with co-corrector) [2]: +++ (≥350)
EC50 [3]: < 3 µM
Emax [4]: > 150%

Compound: CO[C@@H](C)COc1ccc(C)cc1C1(C(=O)NS(=O)(=O)c2cccc3ncccc23)CC1 [Example I-113, 1-{2-[(2S)-2-methoxypropoxy]-5-methylphenyl}-N-(quinoline-5-sulfonyl)cyclopropane-1-carboxamide]
EC50 [1]: < 3 µM
Maximum % activity (with co-corrector) [2]: +++ (≥350)
EC50 [3]: < 3 µM
Emax [4]: > 150%

Compound: COC1CCN(c2ncc(C3CCC3)cc2C2(C(=O)NS(=O)(=O)c3cccc4[nH]ccc34)CC2)CC1 [Example GI-57, 1-[5-cyclobutyl-2-(4-methoxypiperidin-1-yl)pyridin-3-yl]-N-(1H-indole-4-sulfonyl)cyclopropane-1-carboxamide]
Maximum % activity (with co-corrector) [6]: +++ (≥350)
EC50 [9]: < 3 µM
Emax [8]: > 150%
EC50 [10]: < 3 µM

Compound: COc1cc(C2(C(=O)NS(=O)(=O)c3cccc4ncccc34)CC2)c(OC(C)C)cn1 [Example GI-16, 1-{2-methoxy-5-[(propan-2-yl)oxy]pyridin-4-yl}-N-(quinoline-5-sulfonyl)cyclopropane-1-carboxamide]
EC50 [1]: 3 to 10 µM
Maximum % activity (with co-corrector) [2]: +++ (≥350)
EC50 [3]: < 3 µM
Emax [4]: > 150%

Compound: Cc1ccc2c(S(=O)(=O)NC(=O)C3(c4cc(C5CCC5)cnc4N4CCCC4)CC3)cccc2n1 [Example GI-29, 1-[5-cyclobutyl-2-(pyrrolidin-1-yl)pyridin-3-yl]-N-(2-methylquinoline-5-sulfonyl)cyclopropane-1-carboxamide]
Maximum % activity (with co-corrector) [6]: +++ (≥350)
EC50 [9]: < 3 µM
Emax [8]: > 150%
EC50 [10]: < 3 µM

Compound: CN(C)c1ncc(C(F)(F)F)cc1C1(C(=O)NS(=O)(=O)c2cccc3ccccc23)CC1 [Example I-30, 1-[2-(dimethylamino)-5-(trifluoromethyl)pyridin-3-yl]-N-(naphthalene-1-sulfonyl)cyclopropane-1-carboxamide]
EC50 [1]: < 3 µM
Maximum % activity (with co-corrector) [2]: +++ (≥350)
EC50 [3]: < 3 µM
Emax [4]: > 150%

Compound: COc1cc(C2(C(=O)NS(=O)(=O)c3cccc4[nH]ccc34)CC2)c(OCC2CC2)cn1 [Example GI-95, 1-[5-(cyclopropylmethoxy)-2-methoxypyridin-4-yl]-N-(1H-indole-4-sulfonyl)cyclopropane-1-carboxamide]
Maximum % activity (with co-corrector) [6]: +++ (≥350)
EC50 [9]: < 3 µM
Emax [8]: > 150%
EC50 [10]: < 3 µM

The remaining lines, values ahead:

EC50 [1]: < 3 µM
Maximum % activity (with co-corrector) [2]: ++ (≥150 and <350)
EC50 [3]: < 3 µM
Emax [4]: 50 to 150%
Compound: COc1ccc(C)nc1C1(C(=O)NS(=O)(=O)c2cccc3nc(C)ccc23)CC1 [Example III-126, 1-(3-methoxy-6-methylpyridin-2-yl)-N-(2-methylquinoline-5-sulfonyl)cyclopropane-1-carboxamide]

EC50 (with co-corrector) [5]: ++^a
Maximum % activity (with co-corrector) [6]: ++ (≥150 and <350)
EC50 (without co-corrector) [7]: ++^a
Emax [8]: 50 to 150%
Compound: COCCOc1ncc(OC)cc1C1(C(=O)NS(=O)(=O)c2cccc3ncccc23)CC1 [GII-44, 1-[5-methoxy-2-(2-methoxyethoxy)pyridin-3-yl]-N-(quinoline-5-sulfonyl)cyclopropane-1-carboxamide]

Maximum % activity (with co-corrector) [6]: +++ (≥350)
EC50 [9]: 3 to 10 µM
Emax [8]: 50 to 150%
EC50 [10]: 3 to 10 µM
Compound: Cc1cnc(N(C)C)c(C2(C(=O)NS(=O)(=O)c3cccc4ncccc34)CC2)c1 [GII-41, 1-[2-(dimethylamino)-5-methylpyridin-3-yl]-N-(quinoline-5-sulfonyl)cyclopropane-1-carboxamide]

EC50 [1]: > 10 µM
Maximum % activity (with co-corrector) [2]: + (<150)
EC50 [3]: > 10 µM
Emax [4]: < 50%
Compound: CC(=O)N1CCC(S(=O)(=O)NC(=O)C2(c3ccc(Cl)cc3Cl)CC2)CC1 [Example III-78, N-(1-acetylpiperidine-4-sulfonyl)-1-(2,4-dichlorophenyl)cyclopropane-1-carboxamide]

EC50 [1]: < 3 µM
Maximum % activity (with co-corrector) [2]: +++ (≥350)
EC50 [3]: < 3 µM
Emax [4]: > 150%
Compound: Cc1ccc(OC(C)C)c(C2(C(=O)NS(=O)(=O)c3cccc4[nH]ccc34)CC2)c1 [II-79]

EC50 [1]: 3 to 10 µM
Maximum % activity (with co-corrector) [2]: +++ (≥350)
EC50 [3]: 3 to 10 µM
Emax [4]: 50 to 150%
Compound: Cc1ccccc1S(=O)(=O)NC(=O)C1(c2ccc(Cl)cc2Cl)CC1 [Example III-87, 1-(2,4-dichlorophenyl)-N-(2-methylbenzene-1-sulfonyl)cyclopropane-1-carboxamide]

EC50 (with co-corrector) [5]: ++^a
Maximum % activity (with co-corrector) [6]: ++ (≥150 and <350)
EC50 (without co-corrector) [7]: ++^a
Emax [8]: 50 to 150%
Compound: COc1cc(C2(C(=O)NS(=O)(=O)c3cccc4nc(C)ccc34)CC2)c(OC(F)F)cn1 [GIII-22]

Maximum % activity (with co-corrector) [6]: ++ (≥150 and <350)
EC50 [9]: 3 to 10 µM
Emax [8]: < 50%
EC50 [10]: 3 to 10 µM
Compound: CCc1ncc(OC)cc1C1(C(=O)NS(=O)(=O)c2cccc3ncccc23)CC1 [GII-17, 1-(2-ethyl-5-methoxypyridin-3-yl)-N-(quinoline-5-sulfonyl)cyclopropane-1-carboxamide]

EC50 [1]: < 3 µM
Maximum % activity (with co-corrector) [2]: +++ (≥350)
EC50 [3]: < 3 µM
Emax [4]: > 150%
Compound: COCC(C)(C)c1ccc(OC)c(C2(C(=O)NS(=O)(=O)c3cccc4nc(C)ccc34)CC2)c1 [II-113]

EC50 (with co-corrector) [5]: ++^a
Maximum % activity (with co-corrector) [6]: ++ (≥150 and <350)
EC50 (without co-corrector) [7]: ++^a
Emax [8]: 50 to 150%
Compound: COc1cc(C2(C(=O)NS(=O)(=O)c3cccc4ncccc34)CC2)c(OCC(F)F)cn1 [GIII-18]

EC50 [1]: 3 to 10 µM
Maximum % activity (with co-corrector) [2]: +++ (≥350)
EC50 [3]: < 3 µM
Emax [4]: > 150%
Compound: COc1cccc(C)c1C1(C(=O)NS(=O)(=O)c2cccc3c2CCCN3)CC1 [II-53]

EC50 [1]: < 3 µM
Maximum % activity (with co-corrector) [2]: +++ (≥350)
EC50 [3]: < 3 µM
Emax [4]: > 150%
Compound: CCOc1ccc(C)cc1C1(C(=O)NS(=O)(=O)c2cccc3nc(N(C)C)ccc23)CC1 [Example III-134, N-[2-(dimethylamino)quinoline-5-sulfonyl]-1-(2-ethoxy-5-methylphenyl)cyclopropane-1-carboxamide]

EC50 [1]: 3 to 10 µM
Maximum % activity (with co-corrector) [2]: +++ (≥350)
EC50 [3]: < 3 µM
Emax [4]: > 150%
Compound: COc1cc(C2CCC2)cc(OC)c1C1(C(=O)NS(=O)(=O)c2cccn3nccc23)CC1 [II-68]
